From PMC11822212, “High-throughput screening identifies Aurora kinase B as a critical therapeutic target for Merkel cell carcinoma” (Nature Communications, 2025) come the findings set out here.

Several values for one entry are separate records, joined by “and”; a condition that tells them apart may be missing. Identical values can stand only once. Like-named read-outs stand apart in the source and are kept apart here.

For experiment [1], the system named is MCC cell lines (WAGA, MKL-1, MKL-2, MCC13, MCC26, UISO). Put plainly: qHTS cell viability, all six MCC cell lines as a group (mean AUC, MCC.avg). In kind it is cell-based, human. A general note: qHTS replaces the single test concentration by a dilution series.
In experiment [2] the test system is VN-MCC cell lines (MCC13, MCC26, UISO). Put plainly: qHTS cell viability, VN-MCC cell lines as a group (mean AUC, VN.MCC.avg). In kind it is cell-based, human.
In experiment [3] the test system is control cell lines (HACAT, HEK293T, CRL-7250, NIH-3T3). Briefly: qHTS cell viability, control cell lines as a group (mean AUC, Control.avg). In kind it is cell-based.
Experiment [4] relates to MKL-2 cells (VP-MCC). Briefly: qHTS cell viability (CellTiter-Glo, 72 h; primary and follow-up small molecule screen). In kind it is cell-based, human.
Experiment [5] has as its system VP-MCC cell lines (WAGA, MKL-1, MKL-2). Put plainly: qHTS cell viability, VP-MCC cell lines as a group (mean AUC, VP.MCC.avg). In kind it is cell-based, human.
Experiment [6] deals with UISO cells (VN-MCC). Briefly: qHTS cell viability (CellTiter-Glo, 72 h; primary and follow-up small molecule screen). In kind it is cell-based, human.
Experiment [7] has as its system WAGA cells (VP-MCC). The experiment is described as above. In kind it is cell-based, human.
For experiment [8], the system named is MKL-1 cells (VP-MCC). Described as above. In kind it is cell-based, human.
In experiment [9] the test system is NIH-3T3 cells. Put plainly: qHTS cell viability (CellTiter-Glo, 72 h; primary screen), control cell line. In kind it is cell-based, mouse.
Experiment [10] deals with six MCC cell lines and four control cell lines. Briefly: qHTS cell viability, all 10 cell lines screened. In kind it is cell-based.
Experiment [11] has as its system MCC13 cells (VN-MCC). Briefly: qHTS cell viability (CellTiter-Glo, 72 h; primary and follow-up small molecule screen). In kind it is cell-based, human.
Experiment [12] deals with MCC26 cells (VN-MCC). The description is as above. In kind it is cell-based, human.
For experiment [13], the system named is HACAT cells. Put plainly: qHTS cell viability (CellTiter-Glo, 72 h; primary screen), control cell line. In kind it is cell-based, human.
Experiment [14] concerns HEK293T cells. The description is as above. In kind it is cell-based, human.
Experiment [15] deals with CRL-7250 cells. The experiment is described as above. In kind it is cell-based.

On to `COc1c(C)c2c(c(O)c1C/C=C(\C)CCC(=O)OCCN1CCOCC1)C(=O)OC2` [Mycophenolate mofetil], for which the MCC_Avg_AUC worked out at 256.444 in experiment [1] (NPC library, mean AUC of all 6 MCC cell lines) and 256.444 in experiment [1] (NPC library, mean AUC of six MCC cell lines). Also, the Control-VN-MCC stood at 24.7903 in [2] (Control AUC minus VN-MCC AUC) and 24.7903 in experiment [2] (NPC library, therapeutic window: Control avg AUC minus VN-MCC avg AUC). Also, in experiment [2] (NPC library, mean AUC of VN-MCC cell lines), the VN-MCC_Avg_AUC came out at 375.798. The Control_Avg_AUC in experiment [3] (NPC library, mean AUC of control cell lines) is 400.588. Besides, in experiment [4] (NPC library, qHTS dose-response AUC, MKL2), the MKL2_AUC was found to be 105.914. Moreover, in [4] (follow-up screen, MKL-2, replicate 1), the “Area under the dose-response curve (AUC) MKL-2 Replicate 1” value amounted to 325.5. Also, in experiment [4] (follow-up screen, MKL-2, replicate 2), the “Area under the dose-response curve (AUC) MKL-2 Replicate 2” value was determined as 324.8. Further, in experiment [4] (follow-up screen, MKL-2, replicate 3), the “Area under the dose-response curve (AUC) MKL-2 Replicate 3” value is given as 367.3. Besides, the Control-VP-MCC in [5] (Control AUC minus VP-MCC AUC) is reported as 263.498; in experiment [5] (NPC library, therapeutic window: Control avg AUC minus VP-MCC avg AUC), 263.498. Moreover, the VP-MCC_Avg_AUC in [5] (NPC library, mean AUC of VP-MCC cell lines) is on record as 137.09. Further, the UISO_AUC in experiment [6] (NPC library, qHTS dose-response AUC, UISO) is 380.141. Also, in experiment [6] (follow-up screen, UISO, replicate 1), the “Area under the dose-response curve (AUC) UISO Replicate 1” value turned out to be 348.1. In [6] (follow-up screen, UISO, replicate 2), the “Area under the dose-response curve (AUC) UISO Replicate 2” value stood at 378.4. For the same compound, the “Area under the dose-response curve (AUC) UISO Replicate 3” value in [6] (follow-up screen, UISO, replicate 3) is 389.6. The WAGA_AUC in [7] (NPC library, qHTS dose-response AUC, WAGA) worked out at 157.003. Also, in experiment [7] (follow-up screen, WAGA, replicate 1), the “Area under the dose-response curve (AUC) WAGA Replicate 1” value was found to be 322.6. Also, the “Area under the dose-response curve (AUC) WAGA Replicate 2” value in experiment [7] (follow-up screen, WAGA, replicate 2) is recorded as 354.0. In addition, the “Area under the dose-response curve (AUC) WAGA Replicate 3” value in experiment [7] (follow-up screen, WAGA, replicate 3) is reported as 383.1. Also, the MKL1_AUC in experiment [8] (NPC library, qHTS dose-response AUC, MKL1) is 148.352. In addition, the “Area under the dose-response curve (AUC) MKL-1 Replicate 1” value in experiment [8] (follow-up screen, MKL-1, replicate 1) was found to be 342.8. For the same compound, the “Area under the dose-response curve (AUC) MKL-1 Replicate 2” value in experiment [8] (follow-up screen, MKL-1, replicate 2) is recorded as 365.2. For the same compound, the “Area under the dose-response curve (AUC) MKL-1 Replicate 3” value in [8] (follow-up screen, MKL-1, replicate 3) is 378.9. For the same compound, the NIH3T3_AUC in experiment [9] (NPC library, qHTS dose-response AUC, NIH3T3 control) was determined as 433.09. The same compound displayed a Control-MCC in experiment [10] (NPC library, therapeutic window: Control avg AUC minus MCC avg AUC) of 144.144. The MCC13_AUC in experiment [11] (NPC library, qHTS dose-response AUC, MCC13) is 354.203. Moreover, in experiment [11] (follow-up screen, MCC13, replicate 1), the “Area under the dose-response curve (AUC) MCC13 Replicate 1” value was determined as 377.4. Besides, the “Area under the dose-response curve (AUC) MCC13 Replicate 2” value in [11] (follow-up screen, MCC13, replicate 2) is 383.7. Further, in [11] (follow-up screen, MCC13, replicate 3), the “Area under the dose-response curve (AUC) MCC13 Replicate 3” value is 412.3. Besides, the MCC26_AUC in experiment [12] (NPC library, qHTS dose-response AUC, MCC26) amounted to 393.051. Further, in [12] (follow-up screen, MCC26, replicate 1), the “Area under the dose-response curve (AUC) MCC26 Replicate 1” value amounted to 381.3. Besides, the “Area under the dose-response curve (AUC) MCC26 Replicate 2” value in experiment [12] (follow-up screen, MCC26, replicate 2) was determined as 385.2. In [12] (follow-up screen, MCC26, replicate 3), the “Area under the dose-response curve (AUC) MCC26 Replicate 3” value came out at 373.0. Further, the HACAT_AUC in [13] (NPC library, qHTS dose-response AUC, HACAT control) was 439.79. In [14] (NPC library, qHTS dose-response AUC, HEK293T control), this compound came in with an HEK293T_AUC of 332.795. This compound showed a CRL7250_AUC in [15] (NPC library, qHTS dose-response AUC, CRL7250 control) of 396.679.

On to `CCN(CC)CCc1c[nH]c2ccccc12.O=C(O)/C=C/C(=O)O` [N,N-Diethyltryptamine fumarate], for which, in experiment [1], the MCC_Avg_AUC was found to be 431.284. Further, in experiment [2], the Control-VN-MCC is reported as 56.4273 and the VN-MCC_Avg_AUC was determined as 415.93. In [3], this compound came in with a Control_Avg_AUC of 472.357. Besides, the MKL2_AUC in experiment [4] is given as 447.202. In addition, in experiment [5], the Control-VP-MCC was 25.7182 and the VP-MCC_Avg_AUC is reported as 446.639. This compound came in with a UISO_AUC in experiment [6] of 405.6. For the same compound, the WAGA_AUC in experiment [7] is 448.87 and 448.871. In experiment [8], the MKL1_AUC came to 443.844. Also, in [9], the NIH3T3_AUC was determined as 478.712. Moreover, the Control-MCC in [10] was determined as 41.0728. The same compound returned an MCC13_AUC in [11] of 439.565. In addition, the MCC26_AUC in experiment [12] was 402.623. For the same compound, the HACAT_AUC in [13] is 490.224 and 490.225. In [14], this compound yielded an HEK293T_AUC of 459.326. For the same compound, the CRL7250_AUC in experiment [15] is recorded as 461.166.

The compound `CCCN(CCC)CCc1c[nH]c2ccccc12.Cl` [N,N-Dipropyltryptamine hydrochloride] gave an MCC_Avg_AUC in experiment [1] of 420.579. Also, in experiment [2], the Control-VN-MCC was 47.3665 and the VN-MCC_Avg_AUC is 431.8. In addition, the Control_Avg_AUC in experiment [3] was 479.166. This compound also registered an MKL2_AUC in experiment [4] of 402.2. In experiment [5], this compound showed a Control-VP-MCC of 69.8085 and a VP-MCC_Avg_AUC of 409.358. Besides, in experiment [6], the UISO_AUC amounted to 424.523. This compound also registered a WAGA_AUC in experiment [7] of 434.773. This compound also returned an MKL1_AUC in experiment [8] of 391.099. In addition, the NIH3T3_AUC in [9] is reported as 481.316. For the same compound, in experiment [10], the Control-MCC amounted to 58.5875. This compound registered an MCC13_AUC in experiment [11] of 455.096. The MCC26_AUC in experiment [12] is recorded as 415.779. Further, in experiment [13], the HACAT_AUC is listed as 490.19. The HEK293T_AUC in experiment [14] came to 447.306. This compound yielded a CRL7250_AUC in experiment [15] of 497.853.
